Experimental data as given in patent US20250368667A1, “USP1 INHIBITOR” (Shanghai Qilu Pharmaceutical Research and Development …, priority 2022, published 2025).
Where two headings read alike, the source gives them in different places. Each block holds one compound with its values, some of them ahead of it.

Experiments:
NCI-H1693 cells = test: USP1 CTG test: NCI-H1693 cell killing experiment; type: cell-based; settings: 6 days, CTG detection, read-out: IC50 (inhibition of NCI-H1693 cells)
Method: Test Example 2 USP1 CTG Test Method
NCI-H1693 cell killing experiment was used to verify the biological activity of USP1i compound in vitro.
NCI-H1693 cells were purchased from ATCC (article number: CRL-5866) and cultured in a cell incubator with 5% CO2 (containing 5% CO2 and 95% air by volume) at 37° C.; 1640 complete medium: comprising 94 wt % RPMI-1640 liquid medium (Gibco, article number: 11875-093), 5 wt % FBS (Gibco, article number: 10099-141), and 1 wt % Pen Strep (Gibco, article number: 15070-063): Fluorescent 384-well plate (Perkin Elmer, article number: 6007279); Trypsin (Gibco, article number: 25200056); CTG Buffer (CellTiter-Glo® 2.0 Cell Viability Assay, Promega, article number: G9241).
[formula] • X: Log10 (compound complex concentration); • Y: corresponding response;
Top and Bottom: corresponding response corresponding to the same unit of Y; and it is noted that: • if X is not the logarithm of dosage, data shall be returned and converted; • if any baseline response is subtracted, the Bottom is set as a constant value of 0.0; and fitting the data to get the IC50 value; • wherein the fitting conditions may be adjusted according to the specific conditions of the data; specifically, Constraint conditions of Bottom, TOP and HillSlope may be adjusted appropriately so as to achieve the curve that is most in line with the actual situation.

[1] = Pharmacokinetic determination in male CD1 mice; type: in vivo; settings: PO 10 mg/kg, plasma
Method: Test Example 3 Pharmacokinetic Determination of the Compound of the Present Application in Male CD1 Mice
Male CD1 mice were used as test animals. After intravenous injection and oral administration, plasma samples were collected at specific time points. The concentration of the compound in plasma was detected by LC-MS/MS, and the parameters of drug metabolism and pharmacokinetics (DMPK) were calculated to evaluate the pharmacokinetic characteristics of the compounds in plasma of mice.
Compounds of Table 5 in this application; the structural formula and preparation method of compound 88 are shown in the above examples. The structural formula of comparative compound 1 is: […]
Male CD1 mice having a weight of between 20 g and 30 g; supplied by Vital River.
Administration of the compound in this application: both group IV (intravenous injection group) and group PO (oral administration group) consist of 3 mice; for group IV, the dosage is 1 mg/kg and the administration volume is 5 mL/kg; and for group PO, the dosage is 10 mg/kg and the administration volume is 10 mL/kg. The administration solvent was 5 vol % DMSO+10 vol % Soltol (Kolliphor HS 15)+85 vol % Saline (physiological saline).
• 0.02 to 0.03 mL of blood was collected from the saphenous vein in group IV at 0.083, 0.25, 0.5, 1, 2, 4, 8 and 24 hours after administration and from the saphenous vein in group PO at 0.25, 0.5, 1, 2, 4, 8 and 24 hours after administration. The collected samples were placed in EDTA-K2 test tube; plasma was separated by centrifuging at 4° C. for […], which was then stored at −80° C. until analysis of the samples.
(§1) Mice plasma samples were treated by: • 1) adding 200 μL acetonitrile to 10 μL plasma sample for precipitation, vortex mixing the mixture for 30 seconds and centrifuging at 4° C. and 3900 rpm for 15 minutes; and • 2) diluting the obtained supernatant with water for 3 folds, and analyzing the concentration of compounds to be detected by LC/MS/MS.

[2] = Pharmacokinetic determination in male Beagle dogs; type: in vivo; settings: IV 0.2 mg/kg; for AUC(0-t) / clearance: dog, plasma; for clearance: read-out: CL (overall clearance rate) (converted)
Method: Test Example 4 Pharmacokinetic Determination of Compounds of the Present Application in Male Beagle Dogs
Male Beagle dogs were used as test animals. After intravenous injection and oral administration, plasma samples were collected at specific time points. The concentration of the compound in plasma was detected by LC-MS/MS, and the DMPK parameters were calculated to evaluate the pharmacokinetic characteristics of the compound in dog plasma.
Compounds of Table 6 in this application. […] The structural formula of KSQ-4279 is: […]
Male Beagle dogs having a weight of 9 to 13 kg, supplied by Beijing Mars Biotechnology Co., Ltd.
Administration information of the compound in this application: both group IV (intravenous injection group) and group PO (oral administration group) consist of 3 dogs; for group IV, the dosage was 0.2 mg/kg and the administration volume was 0.5 mL/kg; for group PO, the dosage was 3 mg/kg and the administration volume was 3 mL/kg. The administration solvent was 5 vol % DMSO+10 vol % Solutol (Kolliphor HS 15)+85 vol % Saline (physiological saline).
0.5 mL of blood was collected from the head vein in group IV at 0.083, 0.25, 0.5, 1, 2, 4, 8 and 24 hours respectively after administration, and from the head vein in group PO at 0.25, 0.5, 1, 2, 4, 8 and 24 hours respectively after administration. The collected samples were placed in EDTA-K2 test tube; plasma was separated by centrifuging at 2 to 8° C. and 2000 g for 10 minutes, which was then stored at −80° C. until analysis of the samples.
as §1, with “Dog” for “Mice”, “50” for “10”, “seconds,” for “seconds”, “of the” for “of”

[3] = tested on: OV0589 Patient-derived Xenograft (PDX); test: Pharmacodynamic experiment of OV0589 patient-derived xenograft (PDX); type: in vivo, Female BALB/c nude mice; settings: oral; for TGI % (tumor growth inhibition rate): Day 36, OV0589 PDX in BALB/c nude mice; for inhibitory effect on tumor growth (FIG. 1): OV0589 PDX
Method: Test Example 5 Pharmacodynamic Experiment of OV0589 Patient-derived Xenograft (PDX)
Female BALB/c nude mice were used as test animals. After oral administration of the compound of this application, the tumor was measured and weighed regularly, and the tumor growth inhibition and tolerance in different administration groups were investigated. After the investigate, plasma and tumor were collected at a specific time point for pharmacokinetic analysis/pharmacodynamics (PK/PD) analysis.
Tumor-bearing mouse tumor (R10P8) was purchased from Sino-American Crown Biotechnology (Beijing) Co., Ltd. Ubiquityl-PCNA (Lys 164) (D5C7P) mAb antibody was purchased from Cell Siganaling company, and the article number is 13439S. PCNA (PC10) antibody was purchased from Santa Cruz company, and the article number is se-56.
Female BALB/c nude mice having a weight of between 21 and 25 g; supplier: Beijing An Kai Yibo Biotechnology Co., Ltd.
Under a temperature of 20° C. to 26° C. and a humidity of 30% to 70% and alternate illumination day and night, when the tumor (R10P8) of the tumor-bearing mice grew to a diameter of about 1 cm (the tumor size reaches 50 to 800 mm^3), the tumor was collected and cut into tumor blocks of about 2 to 3 mm^3, and the tumor block (R10P8) was inoculated subcutaneously into the right anterior scapula of female BALB/c nude mice. The tumor growth in mice was observed regularly. After 35 days of inoculation, when the tumor (R10P8) grew to an average volume of about 150 mm^3 (the range of enrollment was 86.54 mm^3 to […]), according to the tumor size and the weight of mice, StudyDirector™ (version No. 3.1.399.19, supplied by Studylog System, Inc., S. San Francisco, California, USA) was used for random grouping, and the administration was performed for these groups the next day.
Twelve mice were randomly divided into four groups, namely, G1 to G4. Group G1 is the solvent control group, and the solvent is: 10 vol % DMSO+20 vol % Solutol+70 vol % water+5 vol % DMSO+10 vol % Solutol+85 vol % saline. Group G2 was orally administrated with KSQ4279 at a dosage of 100 mg/kg (npk), and the solvent was 5 vol % DMSO+10 vol % Solutol+85 vol % saline.
The tumor growth in mice was observed regularly, and the tumor volume was measured (see FIG. 1), and the change of body weight of mice was observed regularly (see FIG. 2). After 36 days of administration, plasma and tumor were collected for PK/PD analysis.

[4] = target: recombinant human His6-USP1/His6-UAF1 composite protein (Homo sapiens (Human), UniProt O94782); test: USP1 enzyme activity detection (Ub-Rho fluorescence); type: biochemical; settings: USP1/UAF1, Ub-Rho substrate 300 nM, 1 hour pre-incubation; read-out: IC50 (enzymatic inhibition of USP1)
recombinant human His6-USP1/His6-UAF1 composite protein, sequence (O94782 whole entry): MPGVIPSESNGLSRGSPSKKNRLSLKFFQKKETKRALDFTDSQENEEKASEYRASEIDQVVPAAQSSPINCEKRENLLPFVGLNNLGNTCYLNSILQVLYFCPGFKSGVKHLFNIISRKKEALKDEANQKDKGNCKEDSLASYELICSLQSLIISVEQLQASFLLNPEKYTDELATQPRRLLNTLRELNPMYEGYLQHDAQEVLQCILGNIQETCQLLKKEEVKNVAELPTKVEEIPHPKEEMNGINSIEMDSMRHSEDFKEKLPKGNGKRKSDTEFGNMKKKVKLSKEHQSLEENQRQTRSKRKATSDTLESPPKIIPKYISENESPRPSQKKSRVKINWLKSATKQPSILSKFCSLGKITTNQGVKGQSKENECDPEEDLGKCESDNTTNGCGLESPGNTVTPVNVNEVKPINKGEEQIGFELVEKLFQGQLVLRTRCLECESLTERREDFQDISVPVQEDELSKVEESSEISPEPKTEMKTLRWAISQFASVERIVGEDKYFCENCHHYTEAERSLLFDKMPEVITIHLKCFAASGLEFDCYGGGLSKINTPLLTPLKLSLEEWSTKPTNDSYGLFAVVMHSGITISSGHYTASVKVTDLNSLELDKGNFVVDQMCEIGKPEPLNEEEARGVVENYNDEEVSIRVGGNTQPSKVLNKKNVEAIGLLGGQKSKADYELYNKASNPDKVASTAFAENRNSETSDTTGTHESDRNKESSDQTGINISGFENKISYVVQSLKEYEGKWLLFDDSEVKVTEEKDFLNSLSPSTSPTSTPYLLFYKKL
recombinant human His6-USP1/His6-UAF1 composite protein, sequence (Q8TAF3 whole entry partner): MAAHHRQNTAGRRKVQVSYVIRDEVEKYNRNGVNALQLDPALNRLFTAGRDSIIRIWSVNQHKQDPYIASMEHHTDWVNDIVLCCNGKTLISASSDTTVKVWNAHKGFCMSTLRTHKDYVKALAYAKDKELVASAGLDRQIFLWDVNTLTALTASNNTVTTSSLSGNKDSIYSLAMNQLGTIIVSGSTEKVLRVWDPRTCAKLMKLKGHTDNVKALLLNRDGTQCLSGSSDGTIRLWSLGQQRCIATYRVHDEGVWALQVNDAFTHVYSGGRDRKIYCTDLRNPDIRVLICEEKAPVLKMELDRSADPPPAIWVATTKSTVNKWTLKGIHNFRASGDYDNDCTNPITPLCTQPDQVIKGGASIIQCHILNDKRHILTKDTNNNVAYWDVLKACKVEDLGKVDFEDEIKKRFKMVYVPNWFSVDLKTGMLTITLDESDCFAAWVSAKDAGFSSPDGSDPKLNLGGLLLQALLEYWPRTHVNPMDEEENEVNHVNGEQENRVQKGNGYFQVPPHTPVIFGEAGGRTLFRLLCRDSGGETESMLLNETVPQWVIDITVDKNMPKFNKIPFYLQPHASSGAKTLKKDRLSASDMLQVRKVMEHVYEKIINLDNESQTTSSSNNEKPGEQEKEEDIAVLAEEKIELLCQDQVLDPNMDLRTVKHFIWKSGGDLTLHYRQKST

Compound: COc1ncnc(C2CC2)c1-c1ncc2c(n1)n(Cc1ccc(-c3nc(C(F)(F)F)cn3C)cc1)c1nccn21 [Comparative compound 1, reference compound]
IC50 (NCI-H1693 cells; Homo sapiens, 144 h): 53.7 nM
Blood concentration [1]: 2246
Curve area [1]: 6558

Compound: COc1ncnc(C2CC2)c1-c1ncc2c(n1)n(Cc1ccc(-c3nc(C(F)(F)F)cn3C)cc1)c1nncn21 [Comparative compound 2, reference compound]
IC50 (NCI-H1693 cells; Homo sapiens, 144 h): 174 nM

Compound: COc1ncnc(C2CC2)c1-c1ncc2c3ccc(C#N)cc3n(Cc3ccc4c(c3)CCCn3cc(C(F)(F)F)nc3-4)c2n1 [Compound 58]
IC50 (NCI-H1693 cells): 13 nM
AUClast [2]: 190 ng·h/mL
CL (overall clearance rate) [2]: 0.95 L/h/kg
TGI % (tumor growth inhibition rate) ([3]; 30 mg/kg): 97.5%
TGI % (tumor growth inhibition rate) ([3]; 100 mg/kg): 107.7%
inhibitory effect on tumor growth (FIG. 1) ([3]; 100 mg/kg): the best inhibitory effect on tumor growth

Compound: COc1ncnc(C2CC2)c1-c1ncc2c3cn(C)nc3n(Cc3ccc(-c4nc(C(F)(F)F)cn4C(C)C)cc3)c2n1 [Compound 88, 6-(4-cyclopropyl-6-methoxypyrimidin-5-yl)-8-(4-(1-isopropyl-4-(trifluoromethyl)-1H-imidazol-2-yl)benzyl)-2-methyl-2,8-dihydropyrazolo[4′,3′: 4,5]pyrrolo[2,3-d]pyrimidine]
IC50 [4]: 4.5 nM
IC50 (NCI-H1693 cells; Homo sapiens, 144 h): 9.2 nM
Blood concentration [1]: 4803
Curve area [1]: 44062
AUC(0-t) [2]: 236 ng·h/mL
clearance [2]: 15 mL/min/kg

Compound: COc1ncnc(C2CC2)c1-c1ncc2c3cc(F)cnc3n(Cc3ccc4c(c3)CCCn3cc(C(F)(F)F)nc3-4)c2n1 [Compound 146]
IC50 [4]: 11.6 nM

Compound: COc1ncnc(C2CC2)c1-c1ncc2c3ccncc3n(Cc3ccc(-c4nc(C(F)(F)F)c(C)n4C)cc3)c2n1 [Compound 151]
IC50 [4]: 1 nM

Compound: COc1ncnc(C2CC2)c1-c1ncc2c3ccncc3n(Cc3ccc(-c4nc(C(F)(F)F)c(Br)n4C)cc3)c2n1 [Compound 152]
IC50 [4]: 11 nM

Compound: CCP(=O)(CC)c1ccc2c3cnc(-c4c(OC)ncnc4C4CC4)nc3n(Cc3ccc4c(c3)CCCn3cc(C(F)(F)F)nc3-4)c2c1 [Compound 154]
IC50 [4]: 6.2 nM

Second part, led by results:

IC50 [4]: 26 nM
Compound: COc1ncnc(C2CC2)c1-c1ncc2c3ccncc3n(Cc3ccc(-c4nc(C(F)(F)F)c(F)n4C)cc3)c2n1 [Compound 155]

IC50 [4]: 3.5 nM
Compound: COc1ncnc(C2CC2)c1-c1ncc2c3cn(C)nc3n(Cc3ccc(-c4nc(C(F)(F)F)c5ccccn45)cc3)c2n1 [Compound 156]

IC50 [4]: 12 nM
Compound: COc1ncnc(C2CC2)c1-c1ncc2c3ccc(C#N)cc3n(Cc3ccc(-c4nc(C(F)(F)F)c(C5CC5)n4C)cc3)c2n1 [Compound 164]

IC50 [4]: 10.2 nM
Compound: COc1ncnc(C2CC2)c1-c1ncc2c3cn(C)nc3n(Cc3ccc(-c4nc(C(F)(F)F)cs4)cc3)c2n1 [Compound 166]

AUC(0-t) [2]: 124 ng·h/mL
clearance [2]: 28.3 mL/min/kg
Compound: COc1ncnc(C2CC2)c1-c1ncc2cnn(Cc3ccc(-c4nc(C(F)(F)F)cn4C(C)C)cc3)c2n1 [KSQ-4279, reference compound]
TGI % (tumor growth inhibition rate) ([3]; 100 mg/kg): 85.7%
inhibitory effect on tumor growth (FIG. 1) ([3]; 100 mg/kg): obviously worse than compound 58 (dosage of 100 mg/kg)
